The supplement of paper PMC10307832

Legend:
Assay in all cases: relative viability (nuclei count vs DMSO), 5 days (fraction); higher = more cells survive
[1] = compound: CC(=O)Nc1cccc(-n2c(=O)n(C3CC3)c(=O)c3c(Nc4ccc(I)cc4F)n(C)c(=O)c(C)c32)c1 [Trametinib] + CS(=O)(=O)CCNCc1ccc(-c2ccc3ncnc(Nc4ccc(OCc5cccc(F)c5)c(Cl)c4)c3c2)o1 [Lapatinib] (partner 2 µM)
Outline: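 A single step with final 0.05% Triton X-100, 1% formaldehyde and 1 ug/ml Hoechst fixed the cells and stained nuclei 5 days after treatment. Lung cancer cell lines in 1536-well plates had been treated by pin tool the day after seeding with one drug alone or a fixed anchor-drug dose plus five library-drug doses (not always all listed) in √10 steps, and nuclei were counted on 4× images. Relative viability is the ratio of nuclei in treated wells to nuclei in vehicle wells, taken as the median of duplicate plates.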

[2] = compound: CN1C=C(C2=CC=CC=C21)/C=C\3/C4=C(C=CC=N4)NC3=O
Outline: (§1)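 Viability was defined as treated-well nuclei divided by vehicle-well nuclei, with the median taken over replicate plates. Cells from lung cancer lines sat overnight at 37 °C in 1536-well plates, received five √10-spaced library-drug doses by pinning on vehicle-anchored plates, and grew 5 days without medium change before one-step fixation, permeabilisation and Hoechst staining, 4× imaging and MetaXpress nuclear counts. Only plates with control CV under 25% and at least one doubling were kept.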

[3] = compound: CC(=O)Nc1cccc(-n2c(=O)n(C3CC3)c(=O)c3c(Nc4ccc(I)cc4F)n(C)c(=O)c(C)c32)c1 [Trametinib]
Outline: as §1

| Cell Line | relative viability ([1]; first compound 0.0025 µM) | relative viability ([1]; first compound 0.007906 µM) | relative viability ([1]; first compound 0.025 µM) | relative viability ([1]; first compound 0.07906 µM) | relative viability ([1]; first compound 0.25 µM) | relative viability ([2]; 0.02 µM) | relative viability ([2]; 0.06325 µM) | relative viability ([2]; 0.2 µM) | relative viability ([2]; 0.6325 µM) | relative viability ([2]; 2 µM) | relative viability ([3]; 0.0025 µM) | relative viability ([3]; 0.007906 µM) | relative viability ([3]; 0.02 µM, anchor plate) | relative viability ([3]; 0.025 µM) | relative viability ([3]; 0.07906 µM) | relative viability ([3]; 0.25 µM) |
| --- | --- | --- | --- | --- | --- | --- | --- | --- | --- | --- | --- | --- | --- | --- | --- | --- |
| NCI-H596 | 0.918 | 0.817 | 0.807 | 0.833 | 0.412 | 0.985 | 0.998 | 0.791 | 0.982 | 0.993 | 0.934 | 0.872 | 0.787 | 0.802 | 0.712 | 0.47 |
| NCI-H1299 | 1.01 | 0.994 | 0.901 | 0.87 | 0.555 | 1.01 | 1.01 | 1.02 | 1.05 | 1.02 | 1.04 | 1.04 | – | 0.897 | 0.818 | 0.584 |
| NCI-H460 | 0.897 | 0.754 | 0.42 | 0.148 | 0.0413 | 1.04 | 0.98 | 0.973 | 0.992 | 0.947 | 0.982 | 0.969 | 0.159 | 0.668 | 0.339 | 0.12 |
| NCI-H647 | 1.03 | 0.936 | 0.759 | 0.683 | 0.231 | 0.946 | 0.863 | 0.656 | 0.784 | 0.827 | 0.837 | 0.754 | 0.516 | 0.588 | 0.554 | 0.293 |
| NCI-H838 | 0.846 | 0.933 | – | 0.634 | 0.428 | 0.82 | 0.859 | 0.914 | 0.837 | 0.909 | 0.873 | 0.855 | 0.527 | 0.615 | 0.763 | 0.594 |
| PC-14 | 0.27 | 0.194 | 0.182 | 0.192 | 0.192 | 0.944 | 0.943 | 0.926 | 1.01 | 1.05 | 1.03 | 0.953 | 0.756 | 0.758 | 0.626 | 0.226 |
| NCI-H358 | 0.38 | 0.376 | 0.309 | 0.295 | 0.328 | 0.907 | 0.931 | 0.916 | 0.891 | 0.938 | 0.643 | 0.472 | 0.137 | 0.328 | 0.27 | 0.259 |
| NCI-H1915 | 1.01 | 0.929 | 0.873 | 0.538 | 0.253 | 0.964 | 0.934 | 0.97 | 1.09 | 1.05 | 1.05 | 0.737 | 0.3 | 0.54 | 0.423 | 0.353 |
| 201T | 1.06 | 0.922 | 0.93 | 0.879 | 0.928 | 0.951 | 0.979 | 0.988 | 0.916 | 0.971 | 0.96 | 0.886 | 0.721 | 0.845 | 0.778 | 0.761 |
| NCI-H1437 | 0.673 | 0.278 | 0.17 | 0.178 | 0.209 | 1.06 | 0.998 | 0.882 | 1.05 | 1.04 | 0.959 | 0.742 | 0.535 | 0.478 | 0.388 | 0.361 |
| A-427 | 1.1 | 1.05 | 0.619 | 0.818 | 0.678 | 1.06 | 0.955 | – | 1.04 | 1.03 | 1.04 | 0.96 | 0.77 | 0.66 | 0.68 | 0.35 |
| HCC-366 | 0.88 | 0.938 | 0.614 | 0.58 | 0.161 | 1.01 | 1 | 0.923 | 1.1 | 1.02 | 0.959 | 0.969 | 0.373 | 0.796 | 0.669 | 0.395 |
| BEN | 0.681 | 0.651 | – | 0.506 | 0.593 | 0.863 | 0.872 | 0.701 | 0.755 | 1.05 | 0.953 | 0.96 | 1.07 | 0.566 | 0.658 | 0.814 |
| NCI-H2347 | 0.961 | 0.56 | 0.503 | 0.435 | 0.452 | 1.05 | 1.01 | 0.94 | 0.932 | 1.02 | 0.988 | 0.535 | 0.285 | 0.377 | 0.356 | 0.371 |
| Calu-6 | 0.962 | 0.779 | 0.566 | 0.237 | 0.165 | 1.02 | 0.968 | 1.01 | 0.99 | 1.05 | 0.915 | 0.727 | – | 0.472 | 0.24 | 0.18 |
| NCI-H650 | 0.885 | 1.19 | 0.845 | 0.825 | 0.498 | 0.968 | 0.915 | – | 0.84 | 0.846 | 1.1 | 1.24 | 0.98 | 1.08 | 0.957 | 0.623 |
| NCI-H1975 | 0.816 | 0.725 | 0.534 | 0.385 | 0.292 | 1.03 | 0.898 | 0.887 | 0.845 | 0.677 | 0.883 | 0.76 | 0.374 | 0.754 | 0.431 | 0.301 |
| NCI-H2126 | 0.721 | 0.675 | 0.46 | 0.703 | 0.718 | 0.965 | 0.993 | 0.885 | 1.01 | 0.955 | 0.9 | 0.836 | 0.572 | 0.585 | 0.738 | 0.669 |
| NCI-H2087 | 1.1 | 0.665 | 0.496 | 0.254 | 0.18 | 1 | 0.87 | 1.05 | 0.986 | 1.06 | 0.867 | 0.463 | 0.217 | 0.302 | 0.179 | 0.139 |
